Test results: the METLIN SMRT retention time set (Domingo-Almenara et al. 2019)

Assay: gradient 5% acetonitrile 3 min, to 50% in 2 min, to 85% in 15 min, held 3 min, 100 µL/min
Conditions: column: Zorbax Extend-C18 2.1 x 50 mm; eluents: water / acetonitrile, 0.1% formic acid
Procedure, shortened: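 Over 3 months, pure standards in mixtures of ~100 molecules were run by HPLC coupled to a quadrupole time-of-flight mass spectrometer in positive and negative ionization mode. The column was a Zorbax Extend-C18 (2.1 × 50 mm, 1.8 μm) at 100 μL/min, eluted with water and acetonitrile each holding 0.1% formic acid, with 40 μL dead and 900 μL dwell volumes. Retention time was determined from adduct peaks chosen by software and checked manually.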

SMILES	RP-LC retention time
COc1ccc(Cl)cc1NC(=O)CSc1ccc(-c2ccco2)nn1	944 s
O=C(NCc1ccccc1)c1ccc2ccnc(N3CCN(C(=O)c4ccco4)CC3)c2c1	673 s
CCc1cccc(C)c1N(C(=O)CSCc1nc2ccccc2[nH]1)C(C)COC (stereo not given)	635 s
CCc1cc(N2CCN(C(=O)c3ccc(N(C)C)cc3)CC2)nc2nncn12	586 s
Cc1ccc(C(=O)Nc2ccc3c(c2)Sc2ncccc2C(=O)N3C)cc1C	876 s
CC(C)(C)c1csc(-c2csc(S(=O)(=O)Nc3ccc(F)c(Cl)c3)c2)n1	1310 s
Cc1ccc(C(=O)N2CCOc3ccc(N(C)C)cc3C2)s1	632 s
O=C(NCc1cccnc1)c1nc(CCS(=O)(=O)c2ccccc2)no1	593 s
O=C(Cn1c(=O)c2cccn2c2ccc(F)cc21)NC1CCCC1	800 s
CCc1nc2ccccc2c(=O)n1Cc1noc(-c2ccccc2OC)n1	919 s
CCN1C(=O)c2ccccc2Oc2ccc(C(=O)NCc3ccco3)cc21	843 s
O=C(CCc1c(-c2ccc(Cl)cc2)nc2ccccn12)NCc1ccco1	655 s
CC1(C)O[C@H]2CC(=O)OC[C@]23[C@H]2CC[C@@]4(C)[C@H](c5ccoc5)OC(=O)C5O[C@]54[C@]2(C)C(=O)C[C@@H]13 (stereo not given in full)	918 s
O=C(Nc1cccc(F)c1)N1CCC(N2CCN(Cc3ccccc3)C(=O)C2=O)CC1	732 s
Cc1ccc(F)cc1NS(=O)(=O)c1cc(-c2[nH]ncc2C(=O)N(C)C)oc1C	706 s
CCN1C(=O)c2cccnc2Sc2cc(NC(=O)c3ccoc3)ccc21	745 s
CCCCn1cc(S(=O)(=O)NCc2cccc(C(F)(F)F)c2)c2cccnc21	1050 s
CCN(CC)C(=O)c1ccc(C2=CC3(CCNCC3)Oc3cccc(O)c32)cc1	725 s
COC(=O)[C@H](CCSC)NC(=O)c1ccc(-n2cnnn2)cc1	693 s
O=C(Nc1ccccc1)N1CCC(n2cnc3ccc(Cl)cc3c2=O)CC1	782 s
CCCn1cc(C(=O)Nc2ccc3c(c2)OCCO3)c2cccnc21	833 s
Cc1cc2nn(CC(=O)Nc3ccc(Cl)cc3)c(=O)n2c(Nc2ccccc2)n1	1050 s

SMILES	RP-LC retention time
CC(C)c1cc(C2CCCN2C(=O)c2ccc3c(c2)OCO3)on1 (stereo not given)	824 s
Cc1nccn1CC(=O)N1CCCn2cc(-c3cccc(C#N)c3)nc21	626 s
COc1ccc(-c2nc(C)cc(C)c2CNC(=O)c2ccc(Br)o2)cc1	634 s
O=C(NC1CC1)C1CCCN(c2ccc3cc(S(=O)(=O)N4CCCCC4)ccc3n2)C1 (stereo not given)	683 s
c1ccc(-c2nc(-c3ccc(OC4CNC4)cc3)no2)cc1	686 s
COc1ccc(-n2c(=O)c3sccc3n(Cc3nc(-c4ccccc4Cl)no3)c2=O)cc1	946 s
Cc1cc2c(c(=O)n(-c3ccccc3)c(=O)n2CC(=O)Nc2ccc(F)c(Cl)c2)n1C	902 s
CC(C)N1C(=O)c2cccnc2Sc2cc(NC(=O)c3c(F)cccc3Cl)ccc21	973 s
Cc1ccc2oc(N3CCN(C(=O)c4ccc(-c5noc(C6CC6)n5)cc4)CC3)nc2n1	670 s
CCc1ccc(NC(=O)N2CCC(n3cnc4c(C)cccc4c3=O)CC2)cc1	838 s
CC(=O)Nc1ccc(C2(C(=O)NCc3ccc(F)c(Cl)c3)CCC2)cc1	795 s
Cc1ccc(S(=O)(=O)NC(c2nc(-c3ccc(-c4csc(C)n4)cc3)no2)C(C)C)cc1 (stereo not given)	1160 s
CCc1nn2c(CNS(=O)(=O)Cc3ccc(C)c(C)c3)c(-c3ccccc3)nc2s1	1040 s
CCCCCOC(=O)CSc1nnc(-c2ccc(Cl)cc2Cl)o1	1320 s
CC(C)c1ccc(OCC(=O)NCCS(=O)(=O)N2CCN(c3ncccn3)CC2)cc1	856 s
CC(C)n1cnc(S(=O)(=O)N2CCC(C(=O)Nc3ccc(Cl)cc3)CC2)c1	824 s
O=C(Nc1ccccc1C(=O)N1CCN(c2ccccc2F)CC1)C1=CSCCO1	927 s
COc1ccc(Cl)cc1NC(=O)C(=O)c1cccn1C	1140 s
Cc1ccc(-c2ncccc2CNS(=O)(=O)c2ccc(F)c(F)c2)cc1	738 s
Cc1ccc(CNC(=O)C2(C)CN(S(C)(=O)=O)CC(=O)N2c2ccc(C)c(C)c2)cc1 (stereo not given)	807 s
CCN(CC)C(=O)Cn1ccc(NC(C)=O)nc1=O	602 s
COc1ccccc1CNC(=O)c1ccc2c(c1)N(C)C(=O)c1ccccc1O2	862 s

SMILES	RP-LC retention time
Cc1nnc(NC(=O)c2cn(Cc3cccc(F)c3)nc2OCc2cccc(F)c2)s1	935 s
O=C(Cn1c(=O)c(=O)n(Cc2ccncc2)c2ncccc21)NCCc1ccc(Cl)cc1	633 s
Cc1cc(NC(=O)c2cccc(N3C(=O)CCC3=O)c2)n(-c2nc3ccc(F)cc3s2)n1	706 s
CCCc1noc(-c2cccnc2N2CCCN(Cc3ccc(F)cc3Cl)CC2)n1	748 s
CN(C)CCCN1c2ccc3ccccc3c2Sc2cccc(Cl)c21	792 s
CCn1ccc(C(=O)N2CCc3cc(-c4csc(C5CC5)n4)ccc32)n1	1050 s
O=C(CCC1CCCN(C(=O)Nc2ccc(Cl)cc2)C1)NCc1ccccc1Cl (stereo not given)	939 s
O=C(c1cocn1)N1CC(F)(F)C[C@H]1c1nnc(-c2ccncc2)o1	638 s
Cc1cc(C)cc(N2CCC(NC(=O)Nc3ccccc3Cl)C2=O)c1 (stereo not given)	936 s
COc1ccc(S(=O)(=O)N2CCCn3ccnc3C2c2cnn(C)c2)cc1Cl (stereo not given)	618 s
CCOc1ccc(NC(=O)CN2C(=O)c3ccccc3Sc3ncccc32)cc1	843 s
Cc1c(-c2nnc(C(=O)NCCCN3CCCCCC3)o2)oc2ccccc12	674 s
Cc1cc(N2CCOCC2)n2nc(CN3CCN(c4cc(Cl)ccc4C)CC3)nc2n1	668 s
Cc1cc(C)n(CC(=O)N(C)C2CCc3nn(CC4CC4)c(=O)n3CC2)n1 (stereo not given)	630 s
COCCN(CCOC)c1ncnc2c1cnn2-c1ccc(C)cc1C	902 s
Cn1cccc1C(=O)C(=O)Nc1cccc2c1CCCC2	928 s
COCCCn1c(=O)c2ccccc2n(Cc2nc(-c3ccc(C)c(C)c3)no2)c1=O	1120 s
O=C(CN1CCc2ccccc2C1C(=O)N1CCCC1)NCc1cccc(C(F)(F)F)c1 (stereo not given)	838 s
CCCN(CC1CCOC1)S(=O)(=O)c1cc(Cl)ccc1OC (stereo not given)	939 s
O=C1N(c2ccccc2)CC12CCN(S(=O)(=O)Cc1ccccc1)CC2	654 s
CCC(=O)NCC12CCCC=C1NC(=O)CC2 (stereo not given)	597 s
